Earlier results on 1 compound are cited in patent US20040265230A1, “Compositions and methods for diagnosing and treating colon cancers” (priority 2003, published 2004).

The subject of one data set is tumor cells. The following applies: read-out: concentration causing 50% growth inhibition of tumor cells.
Data set [1] has as its system lymphoid, myeloid, colon, and prostate cancer cells. As to conditions: prostate xenografts in nude mice.

For `CN1CC[C@H](c2c(O)cc(O)c3c(=O)cc(-c4ccccc4Cl)oc23)[C@H](O)C1` [Flavopiridol], the IC50 in the data set on tumor cells is 60 nM. The “inhibition of cancer cells grown in vivo as tumor xenografts” value in data set [1] is on record as “inhibits”.
